Assay results taken from ChEMBL document CHEMBL1201862, “PubChem BioAssay data set” (2004).
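A five-concentration, 48-hour dose response in 96-well plates underlies each endpoint, interpolated linearly between surrounding concentrations. GI50 is the concentration that inhibits growth by half.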 Activity calls are given as the source filed them. Rule as the data show it: active = GI50 up to about 1.1 µM and inactive = higher.

What was measured:
Test in all cases: DTP human tumour cell line panel, 48 h
786-0 = test system: 786-0
A498 = test system: A498
A549 = test system: A549
ACHN = test system: ACHN
BT-549 = test system: BT-549
CAKI-1 = test system: CAKI-1
CCRF-CEM = test system: CCRF-CEM
COLO 205 = test system: COLO 205
DU-145 = test system: DU-145
EKVX = test system: EKVX
HCC 2998 = test system: HCC 2998
HCT-116 = test system: HCT-116
HCT-15 = test system: HCT-15
HL-60 = test system: HL-60
HOP-62 = test system: HOP-62
HOP-92 = test system: HOP-92
HT-29 = test system: HT-29
Hs-578T = test system: Hs-578T
IGROV-1 = test system: IGROV-1
K562 = test system: K562
KM12 = test system: KM12
LOX IMVI = test system: LOX IMVI
M14 = test system: M14
MCF7 = test system: MCF7
MDA-MB-231 = test system: MDA-MB-231
MDA-MB-435 = test system: MDA-MB-435
MDA-N = test system: MDA-N
MOLT-4 = test system: MOLT-4
Malme-3M = test system: Malme-3M
NCI-H226 = test system: NCI-H226
NCI-H23 = test system: NCI-H23
NCI-H460 = test system: NCI-H460
NCI-H522 = test system: NCI-H522
NCI/ADR-RES = test system: NCI/ADR-RES
OVCAR-3 = test system: OVCAR-3
OVCAR-4 = test system: OVCAR-4
OVCAR-5 = test system: OVCAR-5
OVCAR-8 = test system: OVCAR-8
PC-3 = test system: PC-3
RPMI-8226 = test system: RPMI-8226
RXF 393 = test system: RXF 393
SF-268 = test system: SF-268
SF-295 = test system: SF-295
SF-539 = test system: SF-539
SK-MEL-28 = test system: SK-MEL-28
SK-MEL-2 = test system: SK-MEL-2
SK-MEL-5 = test system: SK-MEL-5
SK-OV-3 = test system: SK-OV-3
SN12C = test system: SN12C
SNB-19 = test system: SNB-19
SNB-75 = test system: SNB-75
SR = test system: SR
SW-620 = test system: SW-620
T47D = test system: T47D
TK-10 = test system: TK-10
U-251 = test system: U-251
UACC-257 = test system: UACC-257
UACC-62 = test system: UACC-62
UO-31 = test system: UO-31

Measured: GI50

Cc1cc(=O)n2c3c(c4c(cc13)c(CN(C)C)cc(=O)n4C)OC2
6.15 µM: HCT-15
active: NCI-H522 0.9 µM
inactive: 786-0 15.9 µM | A498 38.2 µM | A549 10 µM | ACHN 4.97 µM | BT-549 22 µM | CAKI-1 13.1 µM | CCRF-CEM > 24.8 µM | COLO 205 11.7 µM | DU-145 20 µM | EKVX 20.6 µM | HCC 2998 6.93 µM | HCT-116 5.2 µM | HL-60 22.2 µM | HOP-62 15.2 µM | HOP-92 28.5 µM | HT-29 8.13 µM | Hs-578T 12.4 µM | IGROV-1 9.51 µM | K562 29.8 µM | KM12 14.7 µM | LOX IMVI 13.2 µM | M14 15.6 µM | MCF7 6.47 µM | MDA-MB-231 33.3 µM | MDA-MB-435 20.9 µM | MDA-N 27.8 µM | MOLT-4 7.48 µM | Malme-3M 12.4 µM | NCI-H226 9.04 µM | NCI-H23 14 µM | NCI-H460 4.46 µM | NCI/ADR-RES 15 µM | OVCAR-3 18.6 µM | OVCAR-4 9.27 µM | OVCAR-5 37.9 µM | OVCAR-8 9.1 µM | PC-3 19.9 µM | RPMI-8226 25.2 µM | RXF 393 6.56 µM | SF-268 15.5 µM | SF-295 16.9 µM | SF-539 7.18 µM | SK-MEL-28 31.8 µM | SK-MEL-2 20.3 µM | SK-MEL-5 12.2 µM | SK-OV-3 26.8 µM | SN12C 20.3 µM | SNB-19 15.8 µM | SNB-75 14.7 µM | SR > 25.6 µM | SW-620 9.98 µM | T47D 38.5 µM | TK-10 19.6 µM | U-251 32.4 µM | UACC-257 21.9 µM | UACC-62 12.6 µM | UO-31 8.04 µM

CC1=CC(C)C(C)N(CC2=NCCN2)c2ccccc21 (stereo unspecified)
> 100 µM: HCT-15
inactive: 786-0 83.2 µM | A498 > 59.8 µM | A549 > 87.3 µM | ACHN 97.9 µM | BT-549 > 100 µM | CAKI-1 > 86.9 µM | CCRF-CEM 45.6 µM | COLO 205 16.9 µM | DU-145 > 69.5 µM | EKVX > 100 µM | HCC 2998 17.9 µM | HCT-116 40 µM | HL-60 > 47 µM | HOP-62 > 100 µM | HOP-92 11 µM | HT-29 18.7 µM | Hs-578T > 74.3 µM | IGROV-1 > 100 µM | K562 36.9 µM | KM12 > 68.4 µM | LOX IMVI 38.1 µM | M14 17.8 µM | MCF7 53.7 µM | MDA-MB-231 32.9 µM | MDA-MB-435 46.5 µM | MDA-N 52.5 µM | MOLT-4 55 µM | Malme-3M 21.4 µM | NCI-H226 68.1 µM | NCI-H23 > 100 µM | NCI-H460 60.8 µM | NCI-H522 29.2 µM | NCI/ADR-RES 99.5 µM | OVCAR-3 56.8 µM | OVCAR-4 > 100 µM | OVCAR-5 > 57.7 µM | OVCAR-8 > 80.9 µM | PC-3 46.3 µM | RPMI-8226 38.7 µM | RXF 393 27.6 µM | SF-268 72.8 µM | SF-295 67.3 µM | SF-539 62.1 µM | SK-MEL-28 18.7 µM | SK-MEL-2 44.8 µM | SK-MEL-5 20.1 µM | SK-OV-3 96.8 µM | SN12C > 100 µM | SNB-19 > 100 µM | SNB-75 46 µM | SR 26 µM | SW-620 > 100 µM | T47D > 57.8 µM | TK-10 54.2 µM | U-251 76.6 µM | UACC-257 19.5 µM | UACC-62 49.3 µM | UO-31 47.3 µM

COC(=O)C1=C(OC(=O)/C(=C/c2ccccc2)c2ccc(Cl)cc2)C(C(=O)OC)[C@@]2(O)[C@@H](C(=O)OC)[C@H](C)C[C@@H]1[C@@H]2C(=O)OC (stereo partly specified)
> 100 µM: HCT-15
inactive: 786-0 > 100 µM | A498 > 100 µM | A549 > 100 µM | ACHN > 100 µM | BT-549 > 100 µM | CAKI-1 > 100 µM | CCRF-CEM > 100 µM | COLO 205 > 100 µM | DU-145 > 100 µM | EKVX > 100 µM | HCC 2998 > 100 µM | HCT-116 > 100 µM | HL-60 > 100 µM | HOP-62 > 100 µM | HOP-92 29.1 µM | HT-29 > 100 µM | Hs-578T > 100 µM | IGROV-1 > 100 µM | K562 2.37 µM | KM12 > 100 µM | LOX IMVI > 100 µM | M14 > 100 µM | MCF7 > 100 µM | MDA-MB-231 > 100 µM | MDA-MB-435 > 100 µM | MDA-N > 100 µM | MOLT-4 79.3 µM | Malme-3M > 100 µM | NCI-H226 > 100 µM | NCI-H23 > 100 µM | NCI-H460 > 100 µM | NCI-H522 > 100 µM | NCI/ADR-RES > 100 µM | OVCAR-3 > 100 µM | OVCAR-4 > 100 µM | OVCAR-5 > 100 µM | OVCAR-8 > 100 µM | PC-3 > 100 µM | RPMI-8226 > 100 µM | RXF 393 > 100 µM | SF-268 > 100 µM | SF-295 > 100 µM | SF-539 > 100 µM | SK-MEL-28 > 100 µM | SK-MEL-2 > 100 µM | SK-MEL-5 > 100 µM | SK-OV-3 > 100 µM | SN12C > 100 µM | SNB-19 > 100 µM | SNB-75 > 100 µM | SR > 100 µM | SW-620 > 100 µM | T47D > 100 µM | TK-10 > 100 µM | U-251 > 100 µM | UACC-257 > 100 µM | UACC-62 > 100 µM | UO-31 > 100 µM

CSC(=S)Nc1cc(C)cc(C)n1
inactive: 786-0 22.4 µM | A498 > 100 µM | A549 > 31.6 µM | ACHN > 31.6 µM | BT-549 > 100 µM | CAKI-1 > 31.6 µM | CCRF-CEM > 31.6 µM | COLO 205 > 31.6 µM | DU-145 > 31.6 µM | EKVX > 31.6 µM | HCC 2998 > 31.6 µM | HCT-116 > 10 µM | HL-60 > 31.6 µM | HOP-62 > 100 µM | HOP-92 > 31.6 µM | HT-29 > 31.6 µM | Hs-578T > 31.6 µM | IGROV-1 > 100 µM | K562 > 31.6 µM | KM12 > 31.6 µM | LOX IMVI > 31.6 µM | M14 > 31.6 µM | MCF7 > 31.6 µM | MDA-MB-231 > 100 µM | MDA-MB-435 > 31.6 µM | MDA-N > 31.6 µM | MOLT-4 > 31.6 µM | Malme-3M > 31.6 µM | NCI-H226 > 31.6 µM | NCI-H23 > 31.6 µM | NCI-H460 > 31.6 µM | NCI-H522 18.7 µM | NCI/ADR-RES > 31.6 µM | OVCAR-3 > 31.6 µM | OVCAR-4 > 31.6 µM | OVCAR-5 > 31.6 µM | OVCAR-8 > 31.6 µM | PC-3 > 31.6 µM | RPMI-8226 > 31.6 µM | RXF 393 > 31.6 µM | SF-268 > 31.6 µM | SF-295 > 31.6 µM | SF-539 > 100 µM | SK-MEL-28 > 31.6 µM | SK-MEL-2 > 31.6 µM | SK-MEL-5 > 66.4 µM | SK-OV-3 > 31.6 µM | SN12C > 31.6 µM | SNB-19 > 31.6 µM | SNB-75 > 10 µM | SR > 10 µM | SW-620 > 31.6 µM | T47D > 31.6 µM | TK-10 > 31.6 µM | U-251 > 31.6 µM | UACC-257 > 31.6 µM | UACC-62 > 31.6 µM | UO-31 > 31.6 µM
> 31.6 µM: HCT-15
